In ChEMBL document CHEMBL1201862, “PubChem BioAssay data set” (2004):
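Interpolation was linear, between the two tested concentrations surrounding the appropriate level; five concentrations were tested over 48 hours in 96-well plates. At the GI50, growth is halved.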 The source made the active and inactive calls. Cut-off read from the data, not from the text of the source: active = GI50 up to about 1.1 µM and inactive = higher.

Legend:
Assay in all cases: NCI-60 cell line screen, 48 h
K562 = test system: K562
ACHN = test system: ACHN
CAKI-1 = test system: CAKI-1
CCRF-CEM = test system: CCRF-CEM
Malme-3M = test system: Malme-3M
UACC-62 = test system: UACC-62
M14 = test system: M14
RXF 393 = test system: RXF 393
SNB-75 = test system: SNB-75
HOP-62 = test system: HOP-62
786-0 = test system: 786-0
NCI-H460 = test system: NCI-H460
OVCAR-3 = test system: OVCAR-3
SK-MEL-28 = test system: SK-MEL-28
SK-MEL-2 = test system: SK-MEL-2
KM12 = test system: KM12
XF498 = test system: XF498
RPMI-8226 = test system: RPMI-8226
HCC 2998 = test system: HCC 2998
HL-60 = test system: HL-60
MOLT-4 = test system: MOLT-4
SF-295 = test system: SF-295
OVCAR-4 = test system: OVCAR-4
SNB-19 = test system: SNB-19
UACC-257 = test system: UACC-257
SN12C = test system: SN12C
NCI-H522 = test system: NCI-H522
A549 = test system: A549
HCT-116 = test system: HCT-116
LXFL 529 = test system: LXFL 529
UO-31 = test system: UO-31
KM-20L2 = test system: KM-20L2
DMS-114 = test system: DMS-114
HOP-18 = test system: HOP-18
SNB-78 = test system: SNB-78
HT-29 = test system: HT-29
U-251 = test system: U-251
OVCAR-8 = test system: OVCAR-8
LOX IMVI = test system: LOX IMVI
SW-620 = test system: SW-620
NCI-H226 = test system: NCI-H226
NCI-H23 = test system: NCI-H23
OVCAR-5 = test system: OVCAR-5
SK-OV-3 = test system: SK-OV-3
EKVX = test system: EKVX
IGROV-1 = test system: IGROV-1
DLD-1 = test system: DLD-1
TK-10 = test system: TK-10
SF-268 = test system: SF-268
SF-539 = test system: SF-539
A498 = test system: A498
HOP-92 = test system: HOP-92
M19-MEL = test system: M19-MEL
HCT-15 = test system: HCT-15
COLO 205 = test system: COLO 205
SK-MEL-5 = test system: SK-MEL-5
DMS-273 = test system: DMS-273

COC(=O)/C(C#N)=C1\CCC(O)N1C (stereo not given)
GI50 (K562): > 100 µM (inactive) | GI50 (ACHN): > 100 µM (inactive) | GI50 (CAKI-1): > 100 µM (inactive) | GI50 (CCRF-CEM): > 100 µM (inactive) | GI50 (Malme-3M): > 100 µM (inactive) | GI50 (UACC-62): > 100 µM (inactive) | GI50 (M14): > 100 µM (inactive) | GI50 (RXF 393): > 100 µM (inactive) | GI50 (SNB-75): > 100 µM (inactive) | GI50 (HOP-62): > 100 µM (inactive) | GI50 (786-0): > 100 µM (inactive) | GI50 (NCI-H460): > 100 µM (inactive) | GI50 (OVCAR-3): > 100 µM (inactive) | GI50 (SK-MEL-28): > 100 µM (inactive) | GI50 (SK-MEL-2): > 100 µM (inactive) | GI50 (KM12): > 100 µM (inactive) | GI50 (XF498): > 100 µM (inactive) | GI50 (RPMI-8226): > 100 µM (inactive) | GI50 (HCC 2998): > 100 µM (inactive) | GI50 (HL-60): > 100 µM (inactive) | GI50 (MOLT-4): > 100 µM (inactive) | GI50 (SF-295): > 100 µM (inactive) | GI50 (OVCAR-4): > 100 µM (inactive) | GI50 (SNB-19): > 100 µM (inactive) | GI50 (UACC-257): > 100 µM (inactive) | GI50 (SN12C): > 100 µM (inactive) | GI50 (NCI-H522): > 100 µM (inactive) | GI50 (A549): > 100 µM (inactive) | GI50 (HCT-116): > 100 µM (inactive) | GI50 (LXFL 529): > 100 µM (inactive) | GI50 (UO-31): > 100 µM (inactive) | GI50 (KM-20L2): > 100 µM (inactive) | GI50 (DMS-114): > 100 µM (inactive) | GI50 (HOP-18): > 100 µM (inactive) | GI50 (SNB-78): > 100 µM (inactive) | GI50 (HT-29): > 100 µM (inactive) | GI50 (U-251): > 100 µM (inactive) | GI50 (OVCAR-8): > 100 µM (inactive) | GI50 (LOX IMVI): > 100 µM (inactive) | GI50 (SW-620): > 100 µM (inactive) | GI50 (NCI-H226): > 100 µM (inactive) | GI50 (NCI-H23): > 100 µM (inactive) | GI50 (OVCAR-5): > 100 µM (inactive) | GI50 (SK-OV-3): > 100 µM (inactive) | GI50 (EKVX): > 100 µM (inactive) | GI50 (IGROV-1): > 100 µM (inactive) | GI50 (DLD-1): > 100 µM (inactive) | GI50 (TK-10): > 100 µM (inactive) | GI50 (SF-268): > 100 µM (inactive) | GI50 (SF-539): > 100 µM (inactive)

CC(C(=O)C(C)O[Si](c1ccccc1)(c1ccccc1)C(C)(C)C)=P(c1ccccc1)(c1ccccc1)c1ccccc1 (stereo not given)
GI50 (K562): 2.95 µM (inactive) | GI50 (ACHN): 4.08 µM (inactive) | GI50 (CAKI-1): 3.21 µM (inactive) | GI50 (CCRF-CEM): 3.5 µM (inactive) | GI50 (Malme-3M): 3.13 µM (inactive) | GI50 (UACC-62): 3.94 µM (inactive) | GI50 (M14): 4.32 µM (inactive) | GI50 (SNB-75): 3.41 µM (inactive) | GI50 (HOP-62): 3.09 µM (inactive) | GI50 (786-0): 4.06 µM (inactive) | GI50 (NCI-H460): 3.69 µM (inactive) | GI50 (OVCAR-3): 2.9 µM (inactive) | GI50 (SK-MEL-2): 2.5 µM (inactive) | GI50 (KM12): 3.61 µM (inactive) | GI50 (XF498): 2.79 µM (inactive) | GI50 (RPMI-8226): 2.34 µM (inactive) | GI50 (HCC 2998): 3.57 µM (inactive) | GI50 (HL-60): 1.91 µM (inactive) | GI50 (MOLT-4): 2.95 µM (inactive) | GI50 (SF-295): 3.33 µM (inactive) | GI50 (OVCAR-4): 3.37 µM (inactive) | GI50 (SNB-19): 3.96 µM (inactive) | GI50 (UACC-257): 3.71 µM (inactive) | GI50 (SN12C): 3.77 µM (inactive) | GI50 (A498): 4.28 µM (inactive) | GI50 (A549): 3.3 µM (inactive) | GI50 (HOP-92): 2.21 µM (inactive) | GI50 (HCT-116): 2.98 µM (inactive) | GI50 (M19-MEL): 3.11 µM (inactive) | GI50 (LXFL 529): 3.3 µM (inactive) | GI50 (UO-31): 5.28 µM (inactive) | GI50 (KM-20L2): 4.13 µM (inactive) | GI50 (DMS-114): 2.39 µM (inactive) | GI50 (HOP-18): 3.05 µM (inactive) | GI50 (SNB-78): 3.48 µM (inactive) | GI50 (HT-29): 3.08 µM (inactive) | GI50 (HCT-15): 5.64 µM | GI50 (U-251): 4.01 µM (inactive) | GI50 (OVCAR-8): 3.82 µM (inactive) | GI50 (LOX IMVI): 3.29 µM (inactive) | GI50 (SW-620): 3.91 µM (inactive) | GI50 (NCI-H226): 3.3 µM (inactive) | GI50 (NCI-H23): 3.23 µM (inactive) | GI50 (OVCAR-5): 11 µM (inactive) | GI50 (SK-OV-3): 2.42 µM (inactive) | GI50 (EKVX): 12.9 µM (inactive) | GI50 (IGROV-1): 3.7 µM (inactive) | GI50 (DLD-1): 4.58 µM (inactive) | GI50 (COLO 205): 1.8 µM (inactive) | GI50 (TK-10): 4.76 µM (inactive) | GI50 (SF-539): 3.89 µM (inactive) | GI50 (SK-MEL-5): 2.75 µM (inactive)

COc1cc(C2c3cc4c(cc3[C@@H](NCCN3CCOCC3)C3COC(=O)[C@H]23)OCO4)cc(OC)c1O (stereo not given in full)
GI50 (K562): 3.01 µM (inactive) | GI50 (CAKI-1): 2.08 µM (inactive) | GI50 (Malme-3M): 3.76 µM (inactive) | GI50 (UACC-62): 2.09 µM (inactive) | GI50 (M14): 3.98 µM (inactive) | GI50 (RXF 393): 2.9 µM (inactive) | GI50 (DMS-273): 0.805 µM (active) | GI50 (HOP-62): 0.782 µM (active) | GI50 (786-0): 2.1 µM (inactive) | GI50 (OVCAR-3): 4.13 µM (inactive) | GI50 (SK-MEL-28): 3.66 µM (inactive) | GI50 (SK-MEL-2): 4.89 µM (inactive) | GI50 (KM12): 4.01 µM (inactive) | GI50 (HCC 2998): 2.44 µM (inactive) | GI50 (SF-295): 2.49 µM (inactive) | GI50 (OVCAR-4): > 17.5 µM (inactive) | GI50 (SNB-19): 4.89 µM (inactive) | GI50 (UACC-257): 4.4 µM (inactive) | GI50 (NCI-H522): 3.16 µM (inactive) | GI50 (HOP-92): 1.31 µM (inactive) | GI50 (HCT-116): 2.86 µM (inactive) | GI50 (LXFL 529): > 17.5 µM (inactive) | GI50 (UO-31): 2.94 µM (inactive) | GI50 (KM-20L2): 5.2 µM (inactive) | GI50 (HOP-18): 4.52 µM (inactive) | GI50 (SNB-78): > 17.5 µM (inactive) | GI50 (HT-29): 5.73 µM (inactive) | GI50 (HCT-15): 2.81 µM | GI50 (U-251): 1.26 µM (inactive) | GI50 (OVCAR-8): 3.05 µM (inactive) | GI50 (LOX IMVI): 1.77 µM (inactive) | GI50 (SW-620): 2.08 µM (inactive) | GI50 (EKVX): 16.4 µM (inactive) | GI50 (IGROV-1): 5.52 µM (inactive) | GI50 (DLD-1): 5.45 µM (inactive) | GI50 (TK-10): 5.56 µM (inactive) | GI50 (SF-268): 2.06 µM (inactive) | GI50 (SF-539): 0.993 µM (active)
